pIC50: −log10 of the molar value.
Key:
[1] = biological target: T1, BTK (Homo sapiens, UniProt Q06187); experiment: Kinase inhibitor profiling, pEY phosphorylation; assay type: biochemical
T1 construct: specificity data for proteins generated from a library of eighteen full-length clones; host or cells: rabbit reticulocyte lysate, TnT coupled in vitro transcription/translation (cell-free)
Method: (§1) Proteins were produced in an in vitro transcription and translation reaction. […] The unbound components of the reaction containing endogenous kinases were removed by three washes with TT-buffer (25 mM Tris-HCl buffer pH 7.4 and 0.004% Triton), two five minutes washings with high-salt wash buffer (25 mM Tris-HCl buffer pH 7.4, 0.004% Triton, 1M NaCl and 5 mM DTT) and 3 more washes with TT-buffer. To these immobilized and purified proteins a tyrosine kinase substrate, 5 nM pEY (poly Glu-Tyr, Sigma, MO), was added in a 50 μl reaction solution containing 5 mM MgCl2, 5 mM MnCl2, 100 μM ATP, 25 mM Tris-HCl buffer pH 7.4, 0.05 mM Na3VO4, 0.004% TritonX-100, 2 mM DTT and EDTA-free protease inhibitor (Roche Molecular Biochemicals). This mixture was incubated with shaking at room temperature overnight to allow phosphorylation of the pEY substrate by the immobilized kinases. Following this incubation, 45 μl of this mixture was transferred to a streptavidin or avidin-coated NPT IPR plate coated with biotinylated anti-phosphotyrosine antibody (PY20, Zymed labs, CA) followed by incubation for 30 minutes at room temperature to allow the binding of the phosphorylated pEY substrate to the PY20 coated NPT plate. Following this binding step, 50 ng Sulfo-TAG labeled anti-phosphotyrosine in buffer containing 25 mM Tris-HCl buffer pH 7.4, 5 mM MgCl2, 0.05 mM Na3VO4, 0.004% TritonX-100, 2 mM DTT and 0.05% IgG was added followed by incubation at room temperature for 30 mm. The unbound reagents were removed by one time washing with water, and the TAG label was detected in presence of 150 μl IPR assay buffer (0.4 mM Gly-Gly buffer, pH 7.8, 1 mM EDTA, 0.1 M TPA). The ECL signals were measured using an imaging plate reader.
(§2) The unbound components of the translation reaction (including any endogenous kinases) were removed by 3 washes with TT-buffer (25 mM Tris-HCl buffer pH 7.4 and 0.004% Triton), two five minutes washes with high-salt wash buffer (25 mM Tris-HCl buffer pH 7.4, 0.004% Triton, 1M NaCl and 5 mM DTT) and 3 washes with TT-buffer. […] The mixture was incubated at room temperature for 10 mm before starting the kinase reaction by adding 25 μl of 200 μM ATP in buffer A. This mixture was incubated with intermittent shaking at room temperature for 2 hours to overnight to allow (a) phosphorylation of the pEY substrate and (b) autophosphorylation of the immobilized kinases. Autophosphorylation and phosphorylation of the pEY was measured as described in Examples 7 and 8.
(§3) The ECL signal in control wells produced by tyrosine kinases was compared to the wells containing inhibitor compounds.

[2] = system: tyrosine kinases reported to be the target of each inhibitor; conditions: read-out: reported IC50 concentration (1× concentration); for the kinase reported to be the target of the inhibitor; cited from earlier work
[3] = biological target: T2, Kit (Mus musculus, UniProt P05532); experiment: Kinase inhibitor profiling, pEY phosphorylation; assay type: biochemical
T2 construct: specificity data for proteins generated from a library of eighteen full-length clones; biotin on random lysines (biotin-Lys-tRNA); host or cells: rabbit reticulocyte lysate, coupled transcription/translation (TnT, Promega)
T2 sequence (P05532 25-979): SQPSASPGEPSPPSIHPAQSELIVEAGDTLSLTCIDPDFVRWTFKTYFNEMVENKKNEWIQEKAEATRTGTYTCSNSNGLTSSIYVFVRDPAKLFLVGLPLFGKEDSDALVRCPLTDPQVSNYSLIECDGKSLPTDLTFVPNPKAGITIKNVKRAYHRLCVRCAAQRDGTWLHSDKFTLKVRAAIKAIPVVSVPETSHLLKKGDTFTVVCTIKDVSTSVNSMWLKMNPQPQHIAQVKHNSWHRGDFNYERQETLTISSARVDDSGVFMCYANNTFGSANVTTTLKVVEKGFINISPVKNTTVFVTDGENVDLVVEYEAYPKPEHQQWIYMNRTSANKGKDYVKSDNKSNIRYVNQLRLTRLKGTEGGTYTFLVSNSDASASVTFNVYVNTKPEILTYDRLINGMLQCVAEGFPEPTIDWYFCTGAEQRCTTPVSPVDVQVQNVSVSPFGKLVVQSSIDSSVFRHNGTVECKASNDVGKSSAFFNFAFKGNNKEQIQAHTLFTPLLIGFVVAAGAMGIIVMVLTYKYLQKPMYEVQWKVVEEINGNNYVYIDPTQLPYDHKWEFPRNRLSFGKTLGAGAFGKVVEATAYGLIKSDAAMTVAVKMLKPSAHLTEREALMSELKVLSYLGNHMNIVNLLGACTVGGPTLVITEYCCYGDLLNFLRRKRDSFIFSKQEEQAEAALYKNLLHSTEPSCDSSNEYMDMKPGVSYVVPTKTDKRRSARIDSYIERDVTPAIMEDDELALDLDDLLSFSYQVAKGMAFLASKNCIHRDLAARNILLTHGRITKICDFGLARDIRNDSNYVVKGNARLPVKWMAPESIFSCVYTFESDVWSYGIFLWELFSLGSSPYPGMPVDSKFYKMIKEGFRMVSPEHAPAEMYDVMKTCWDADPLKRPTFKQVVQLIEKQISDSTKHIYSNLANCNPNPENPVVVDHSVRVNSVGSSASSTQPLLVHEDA
Method: as §1
(§4) Proteins were produced using 100 ng of plasmid DNA Mock (Luciferase, Promega) or tyrosine kinases (Fert2 IMAGE ID # 4485050, FGFR1 IMAGE ID # 4037899, Fgfr2 IMAGE ID # 2654352, Src IMAGE ID # 3156400, BMX IMAGE ID # 3919253, LCK IMAGE ID # 4191610, Epha7 IMAGE ID # 3991628, Ephb4 IMAGE ID # 4013934, Tek IMAGE ID # 3482498, HCK IMAGE ID # 4778819, BTK IMAGE ID # 4478463, CSK IMAGE ID # 4398416, SYK IMAGE ID # 3870426, FGR IMAGE ID # 4419973, PTK2B IMAGE ID # 4339456, FRK(IMAGE ID # 4515877, Kit IMAGE ID # 2644960, Fgfr-4 IMAGE ID # 4239139, NTRK3 IMAGE ID # 4181574, Kdr IMAGE ID # 4238984, Incyte Genomics, CA) and immobilized on SA or avidin coated NPT-IPR plates as described in previous examples. The unbound components of the translation reaction (including any endogenous kinases) were removed by 3 washes with TT-buffer (25 mM Tris-HCl buffer pH 7.4 and 0.004% Triton), two five minutes washes with high-salt wash buffer (25 mM Tris-HCl buffer pH 7.4, 0.004% Triton, 1M NaCl and 5 mM DTT) and 3 washes with TT-buffer. […] The mixture was incubated at room temperature for 10 mm before starting the kinase reaction by adding 25 μl of 200 μM ATP in buffer A. This mixture was incubated with intermittent shaking at room temperature for 2 hours to overnight to allow (a) phosphorylation of the pEY substrate and (b) autophosphorylation of the immobilized kinases. Autophosphorylation and phosphorylation of the pEY was measured as described in Examples 7 and 8.
(§5) The ECL signal in control wells produced by tyrosine kinases was compared to the wells containing inhibitor compounds. The signal produced from Mock was negligible.

[4] = biological target: T3, EphB4 (Mus musculus, UniProt P54761); experiment: Kinase inhibitor profiling, pEY phosphorylation; assay type: biochemical
T3 construct: specificity data for proteins generated from a library of eighteen full-length clones; host or cells: rabbit reticulocyte lysate, TnT coupled in vitro transcription/translation (cell-free)
T3 sequence (P54761 16-987): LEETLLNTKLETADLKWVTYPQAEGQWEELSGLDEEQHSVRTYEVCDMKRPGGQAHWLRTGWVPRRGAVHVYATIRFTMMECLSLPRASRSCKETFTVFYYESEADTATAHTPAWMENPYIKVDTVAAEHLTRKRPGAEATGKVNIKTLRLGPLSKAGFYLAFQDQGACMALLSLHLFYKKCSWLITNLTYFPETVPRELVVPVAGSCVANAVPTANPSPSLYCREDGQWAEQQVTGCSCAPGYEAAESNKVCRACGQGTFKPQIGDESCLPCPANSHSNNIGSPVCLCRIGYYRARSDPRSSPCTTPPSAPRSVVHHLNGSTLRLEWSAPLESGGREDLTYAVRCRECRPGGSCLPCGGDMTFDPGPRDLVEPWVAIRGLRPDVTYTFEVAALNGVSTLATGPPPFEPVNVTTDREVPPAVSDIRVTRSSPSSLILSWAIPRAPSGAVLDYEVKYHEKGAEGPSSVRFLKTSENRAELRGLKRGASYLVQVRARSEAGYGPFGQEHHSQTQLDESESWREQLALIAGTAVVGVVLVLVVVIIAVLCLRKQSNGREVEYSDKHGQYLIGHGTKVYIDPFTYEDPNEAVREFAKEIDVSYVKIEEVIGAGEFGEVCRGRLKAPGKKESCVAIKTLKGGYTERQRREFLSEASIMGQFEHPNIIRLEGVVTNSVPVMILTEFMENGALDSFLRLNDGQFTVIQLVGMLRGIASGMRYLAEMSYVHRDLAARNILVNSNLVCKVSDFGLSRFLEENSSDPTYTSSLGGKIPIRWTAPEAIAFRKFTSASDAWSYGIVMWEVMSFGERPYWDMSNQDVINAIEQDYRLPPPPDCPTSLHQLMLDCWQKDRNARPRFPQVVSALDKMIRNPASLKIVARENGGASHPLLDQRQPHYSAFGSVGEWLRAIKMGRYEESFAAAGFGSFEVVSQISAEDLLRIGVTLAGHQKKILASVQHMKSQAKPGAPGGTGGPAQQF
Method: as §1, §4, §5

[5] = biological target: T4, Kdr (Mus musculus, UniProt P35918); experiment: Kinase inhibitor profiling, pEY phosphorylation; assay type: biochemical
T4 construct: specificity data for proteins generated from a library of eighteen full-length clones; biotin on random lysines (biotin-Lys-tRNA); host or cells: rabbit reticulocyte lysate, coupled transcription/translation (TnT, Promega)
T4 sequence (P35918 20-1345): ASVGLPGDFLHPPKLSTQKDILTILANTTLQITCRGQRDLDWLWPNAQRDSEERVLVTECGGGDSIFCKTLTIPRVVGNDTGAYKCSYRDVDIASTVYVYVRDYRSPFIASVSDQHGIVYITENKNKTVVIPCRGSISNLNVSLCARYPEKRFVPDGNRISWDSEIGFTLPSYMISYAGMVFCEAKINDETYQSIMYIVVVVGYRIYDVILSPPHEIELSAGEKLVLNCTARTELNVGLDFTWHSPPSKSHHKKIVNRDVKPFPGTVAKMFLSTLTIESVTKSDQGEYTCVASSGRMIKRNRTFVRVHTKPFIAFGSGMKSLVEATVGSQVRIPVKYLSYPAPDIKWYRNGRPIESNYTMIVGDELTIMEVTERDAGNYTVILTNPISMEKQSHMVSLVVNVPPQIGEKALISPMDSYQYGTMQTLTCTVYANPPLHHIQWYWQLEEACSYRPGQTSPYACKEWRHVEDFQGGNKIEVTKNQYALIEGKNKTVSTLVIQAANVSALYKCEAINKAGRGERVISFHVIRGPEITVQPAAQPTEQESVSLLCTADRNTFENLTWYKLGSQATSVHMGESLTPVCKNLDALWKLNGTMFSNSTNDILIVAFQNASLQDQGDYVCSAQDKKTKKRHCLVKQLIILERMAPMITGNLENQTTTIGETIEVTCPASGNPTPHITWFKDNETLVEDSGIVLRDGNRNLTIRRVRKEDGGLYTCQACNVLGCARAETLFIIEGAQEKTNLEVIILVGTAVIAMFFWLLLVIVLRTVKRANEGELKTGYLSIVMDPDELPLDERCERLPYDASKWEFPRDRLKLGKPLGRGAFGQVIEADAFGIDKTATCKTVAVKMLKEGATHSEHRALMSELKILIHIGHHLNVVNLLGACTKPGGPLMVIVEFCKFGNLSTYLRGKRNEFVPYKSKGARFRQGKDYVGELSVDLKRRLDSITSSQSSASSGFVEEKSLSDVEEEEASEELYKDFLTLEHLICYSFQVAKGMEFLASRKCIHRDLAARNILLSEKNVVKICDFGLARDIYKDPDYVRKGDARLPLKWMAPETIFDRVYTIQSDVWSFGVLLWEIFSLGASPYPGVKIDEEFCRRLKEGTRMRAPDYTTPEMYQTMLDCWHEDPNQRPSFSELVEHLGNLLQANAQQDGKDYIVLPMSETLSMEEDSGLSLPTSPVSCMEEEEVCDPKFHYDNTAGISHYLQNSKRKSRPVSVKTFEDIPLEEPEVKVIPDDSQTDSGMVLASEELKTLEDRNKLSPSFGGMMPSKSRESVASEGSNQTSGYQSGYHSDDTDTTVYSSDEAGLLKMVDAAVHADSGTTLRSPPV
Method: as §1, §2, §3

[6] = biological target: T5, Fgfr4 (Mus musculus, UniProt Q03142); experiment: Kinase inhibitor profiling, pEY phosphorylation; assay type: biochemical
T5 construct: specificity data for proteins generated from a library of eighteen full-length clones; biotin on random lysines (biotin-Lys-tRNA); host or cells: rabbit reticulocyte lysate, coupled transcription/translation (TnT, Promega)
T5 sequence (Q03142 17-799): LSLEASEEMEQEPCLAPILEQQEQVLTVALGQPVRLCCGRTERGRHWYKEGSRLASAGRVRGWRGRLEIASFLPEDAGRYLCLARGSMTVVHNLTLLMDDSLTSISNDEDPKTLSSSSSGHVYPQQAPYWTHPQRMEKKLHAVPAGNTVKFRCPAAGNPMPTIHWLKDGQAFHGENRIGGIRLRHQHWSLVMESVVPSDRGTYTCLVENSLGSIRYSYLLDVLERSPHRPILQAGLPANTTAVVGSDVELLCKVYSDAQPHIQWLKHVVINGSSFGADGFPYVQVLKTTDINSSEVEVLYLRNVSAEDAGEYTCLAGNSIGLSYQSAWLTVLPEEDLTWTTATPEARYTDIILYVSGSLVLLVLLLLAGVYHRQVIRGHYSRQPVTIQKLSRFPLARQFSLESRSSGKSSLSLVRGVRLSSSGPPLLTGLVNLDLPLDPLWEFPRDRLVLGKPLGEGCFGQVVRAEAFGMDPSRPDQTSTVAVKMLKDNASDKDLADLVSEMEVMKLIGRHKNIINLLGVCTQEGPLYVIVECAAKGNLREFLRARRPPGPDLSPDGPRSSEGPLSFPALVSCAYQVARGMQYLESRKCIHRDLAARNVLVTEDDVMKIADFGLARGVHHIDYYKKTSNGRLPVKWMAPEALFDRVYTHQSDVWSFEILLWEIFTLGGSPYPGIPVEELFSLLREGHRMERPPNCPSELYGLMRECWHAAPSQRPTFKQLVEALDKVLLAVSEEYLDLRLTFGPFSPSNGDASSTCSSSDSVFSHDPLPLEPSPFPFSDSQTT
Method: as §1, §4, §5

T1 sequence (Q06187 whole entry): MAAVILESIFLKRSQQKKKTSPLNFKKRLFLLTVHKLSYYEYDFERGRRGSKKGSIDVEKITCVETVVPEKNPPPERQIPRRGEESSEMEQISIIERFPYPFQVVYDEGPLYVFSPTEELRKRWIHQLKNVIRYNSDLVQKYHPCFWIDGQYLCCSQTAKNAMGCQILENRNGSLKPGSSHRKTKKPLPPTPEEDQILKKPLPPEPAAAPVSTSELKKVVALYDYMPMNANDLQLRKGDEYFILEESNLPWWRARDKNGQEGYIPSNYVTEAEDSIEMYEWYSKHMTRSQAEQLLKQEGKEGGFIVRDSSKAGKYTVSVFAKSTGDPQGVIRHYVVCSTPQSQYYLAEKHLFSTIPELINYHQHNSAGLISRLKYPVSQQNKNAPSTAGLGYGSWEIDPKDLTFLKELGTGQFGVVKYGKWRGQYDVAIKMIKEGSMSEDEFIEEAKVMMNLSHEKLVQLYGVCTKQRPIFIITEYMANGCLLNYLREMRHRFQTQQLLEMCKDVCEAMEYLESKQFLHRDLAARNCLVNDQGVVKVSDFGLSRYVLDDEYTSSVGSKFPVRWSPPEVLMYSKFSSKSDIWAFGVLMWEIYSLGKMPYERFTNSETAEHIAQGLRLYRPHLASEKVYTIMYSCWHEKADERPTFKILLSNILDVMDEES

SMILES	Inhibition specificity towards pEY phosphorylation at 10X IC50, BTK [1]	pIC50 [2]	Inhibition specificity towards pEY phosphorylation at 10X IC50, Kit [3]	Inhibition specificity towards pEY phosphorylation at 10X IC50, EphB4 [4]	Inhibition specificity towards pEY phosphorylation at 10X IC50, Kdr [5]	Inhibition specificity towards pEY phosphorylation at 10X IC50, Fgfr4 [6]
CC(C)(C)c1cc(/C=C(\C#N)C(N)=S)cc(C(C)(C)C)c1O [AG879]	L (low inhibition (“L”=between 50–75% of the activity remaining))	5.00	–	–	–	–
CC(C)(C)c1cc(C=C(C#N)C#N)cc(C(C)(C)C)c1O [AG-17]	–	6.30	L (low inhibition (“L”=between 50–75% of the activity remaining))	–	–	–
N#C/C(=C/c1ccc(O)c(O)c1)C(=O)NCc1ccccc1 [AG-490]	L (low inhibition (“L”=between 50–75% of the activity remaining))	7.00	–	–	–	–
COc1cc2ncc(-c3ccccc3)nc2cc1OC [AG-1296]	–	6.00	M (medium inhibition (“M”=between 25 to 50% of the activity remaining))	L (low inhibition (“L”=between 50–75% of the activity remaining))	–	–
O=c1c(-c2ccc(O)cc2)coc2cc(O)cc(O)c12 [Genistein]	–	–	M (medium inhibition (“M”=between 25 to 50% of the activity remaining))	L (low inhibition (“L”=between 50–75% of the activity remaining))	–	–
C/C(O)=C(\C#N)C(=O)Nc1cc(Br)ccc1Br [LFM-A13]	–	4.76	M (medium inhibition (“M”=between 25 to 50% of the activity remaining))	–	L (low inhibition (“L”=between 50–75% of the activity remaining))	M (medium inhibition (“M”=between 25 to 50% of the activity remaining))
O=C(O)c1cc(N(Cc2ccccc2O)Cc2cc(O)ccc2O)ccc1O [Lavendustin A]	–	7.96	L (low inhibition (“L”=between 50–75% of the activity remaining))	–	–	–

Reference: patent publication US7063946B2, “Methods, reagents, kits and apparatus for protein function analysis” (Meso Scale Technologies, LLC., priority 2001, dated 2006)
